According to patent US8394971B2, “Indole derivatives as selective androgen receptor modulators (SARMS)” (Janssen Pharmaceutica N.V., priority 2004, dated 2013):
Where two headings read alike, the source gives them in different places.

Assays:
[1] = target: T1, androgen receptor (adenovirus AdEasy+rAR in COS-7 cells) (Rattus norvegicus, UniProt P15207); test: COS-7 Whole-Cell Androgen Receptor Binding Assay, Adenovirus Transduction; conditions: for IC50: read-out: IC50
T1 construct: expressed in transfected cells
T1 sequence (P15207 1-902): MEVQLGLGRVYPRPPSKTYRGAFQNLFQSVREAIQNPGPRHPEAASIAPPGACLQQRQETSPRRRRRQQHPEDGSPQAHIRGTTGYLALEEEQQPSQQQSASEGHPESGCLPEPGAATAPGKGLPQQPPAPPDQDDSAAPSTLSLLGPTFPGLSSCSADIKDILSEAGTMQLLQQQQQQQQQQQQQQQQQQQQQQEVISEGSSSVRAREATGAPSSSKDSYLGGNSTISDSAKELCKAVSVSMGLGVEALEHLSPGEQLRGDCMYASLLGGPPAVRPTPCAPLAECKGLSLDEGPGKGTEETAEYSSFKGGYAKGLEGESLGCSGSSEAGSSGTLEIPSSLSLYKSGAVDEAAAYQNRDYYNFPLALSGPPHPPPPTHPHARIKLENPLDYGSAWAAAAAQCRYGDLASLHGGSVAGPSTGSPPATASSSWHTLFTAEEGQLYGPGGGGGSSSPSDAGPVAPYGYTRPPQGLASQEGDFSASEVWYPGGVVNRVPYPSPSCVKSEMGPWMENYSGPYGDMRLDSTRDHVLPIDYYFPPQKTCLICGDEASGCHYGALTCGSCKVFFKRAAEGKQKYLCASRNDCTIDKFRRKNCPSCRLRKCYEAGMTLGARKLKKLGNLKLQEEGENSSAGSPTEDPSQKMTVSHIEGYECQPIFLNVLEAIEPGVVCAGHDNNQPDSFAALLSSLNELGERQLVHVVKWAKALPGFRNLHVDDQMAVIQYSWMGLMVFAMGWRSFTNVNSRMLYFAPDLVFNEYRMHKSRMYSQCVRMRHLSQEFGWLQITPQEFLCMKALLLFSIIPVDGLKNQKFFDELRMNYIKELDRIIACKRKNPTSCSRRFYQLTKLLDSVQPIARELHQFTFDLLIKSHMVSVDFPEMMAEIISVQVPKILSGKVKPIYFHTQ

[2] = target: T2, androgen receptor (rat ventral prostate cytosol) (Rattus norvegicus, UniProt P15207); test: Androgen Receptor Binding Using Rat Ventral Prostate Cytosol
T2 construct: from tissue; host or cells: ventral prostate of castrated male Sprague Dawley or Wistar rats, cytosol
T2 sequence (P15207 1-902): T1 sequence (P15207 1-902)
Method: The assay was run on a 96 well plate with each well filled with a total reaction volume 150 μL, of a solution containing 5 pmol androgen receptor LBD (Panvera) or 30 μL of freshly prepared rat cytosol, 0.5 nM [^3H] […] (TED buffer contains 10 mM Tris.HCl pH 7.4, 1 mM sodium molybdate, 1.5 mM EDTA, 1 mM DTT and 10% (v/v) glycerol.)
On day one, the solution containing receptor, tracer and TED buffer was distributed into a 96 well plate. Diluted test compound or control vehicle was then added to individual wells and the plate incubated at 4° C. overnight.
On day two, to each well was then added 20 μL human γ-globulin (ICN 823102), prepared at 25 mg/ml in TE pH 8.0, and 55 μL 40% polyethylene glycol 8000 (JT Baker U222-08), prepared in TE pH 8.0. The plate was incubated at 4° C. for 60 minutes. During incubation, the harvester was rinsed with 10% PEG 8000, prepared in TE pH 8.0, and a GF/C Unifilter-96 was pre-wet with 10% PEG. The binding reaction was filtered, the retentate was washed three times with 10% PEG and dried under vacuum for a couple of minutes, then dried at 50° C. for 5 min and the plate was bottom sealed. Next, 25 μL of Microscint-20 (Packard) was added to the filter wells and the plate was top sealed. The plate wells were then counted on a TopCount (Packard).
Rat Prostate Cytosol Preparation:
Male Sprague Dawley or Wistar rats (Charles River, 200-300 g) were used for each preparation. The day before preparing the cytosol, the rats were castrated using standard surgical procedures.
The rats were euthanized by carbon dioxide asphyxiation. The rat prostates were quickly removed and placed on ice in pre-chilled, pre-weighed 50 mL plastic tubes. No more than five prostates were placed into one tube. The tubes were then weighed and the prostate tissue wet weights calculated.
To the chilled prostate tissue was then added […] of chilled homogenization buffer. The homogenization buffer was freshly prepared by mixing 10 mM Tris.HCl, pH 7.4, 1 mM sodium molybdate, 1.5 mM EDTA, 1 mM dithiothreitol, 10% (v/v) glycerol and 1% protease inhibitor cocktail (Sigma P 8340).
The prostate tissue was homogenized in a cold room using a pre-chilled Polytron PT3000 homogenizer (Brinkmann). Homogenization was performed at a speed setting of 20, three times for 10 sec bursts. The tubes containing the prostate tissue was kept on ice while homogenizing. The homogenate was allowed to rest on ice for 20 sec between bursts.
The homogenate was then placed into pre-chilled 3 mL polycarbonate ultracentrifuge tubes and centrifuged in the TLA-100 rotor of a TL-100 ultracentrifuge for 12 min at 100,000 rpm at 4° C. The resulting supernatant was stored in 1 mL aliquots at −80° C. until needed.
Binding to the androgen receptor was determined according to the protocol described in Example 86 using the above prepared rat cytosol.
% Inhibition was determined by testing dilutions of the test compound (usually duplicates of 10 μM) in the binding assay. Counts per well were measured and percents of inhibition determined. […] Counts per well were measured and IC50s determined by linear regression.

[3] = COS binding, 3000 nM unless otherwise noted
[4] = rat cytosol, concentration 3000 nM

SMILES	% Inhibition [1, 3]	% Inhibition [2, 4]	% Inhibition [1]	IC50 ([1]; COS binding)	% Inhibition ([2]; 3 µM)
CC(O)(C[S+]([O-])Cc1ccccc1)c1cc2cc([N+](=O)[O-])c(C(F)(F)F)cc2[nH]1 (mixture of isomers) [compound 161]	20%	39%			
COc1ccc(SCC(C)(O)c2cc3cc(Cl)c(C(F)(F)F)cc3n2S(C)(=O)=O)cc1 (racemic) [compound 130]	−8%	32.55%			
CC(C)CSCC(C)(O)c1cc2cc([N+](=O)[O-])c(C(F)(F)F)cc2[nH]1 (racemic) [compound 170]		80%	67%	> 3000 nM	
COc1ccc(S(=O)(=O)CC(C)(O)c2cc3cc(Cl)c(C(F)(F)F)cc3[nH]2)cc1 (racemic) [compound 129]	10%	39.5%			
CSCCC(C)(O)c1cc2cc([N+](=O)[O-])c(C(F)(F)F)cc2[nH]1 (racemic) [compound 47]			78%	> 1000 nM	81%
